No end group written: not given here.
Columns and labels:
[1] = molecular target: T1, human plasma factor XIIIa (Homo sapiens, UniProt P00488); assay: production of ammonia from casein on ethylamine incorporation (glutamate dehydrogenase/NADH coupled); type: biochemical; conditions: control 4.14
T1 construct: from tissue; host or cells: human plasma (defibrinogenated, not purified further)
T1 sequence (P00488 39-732 limits assumed): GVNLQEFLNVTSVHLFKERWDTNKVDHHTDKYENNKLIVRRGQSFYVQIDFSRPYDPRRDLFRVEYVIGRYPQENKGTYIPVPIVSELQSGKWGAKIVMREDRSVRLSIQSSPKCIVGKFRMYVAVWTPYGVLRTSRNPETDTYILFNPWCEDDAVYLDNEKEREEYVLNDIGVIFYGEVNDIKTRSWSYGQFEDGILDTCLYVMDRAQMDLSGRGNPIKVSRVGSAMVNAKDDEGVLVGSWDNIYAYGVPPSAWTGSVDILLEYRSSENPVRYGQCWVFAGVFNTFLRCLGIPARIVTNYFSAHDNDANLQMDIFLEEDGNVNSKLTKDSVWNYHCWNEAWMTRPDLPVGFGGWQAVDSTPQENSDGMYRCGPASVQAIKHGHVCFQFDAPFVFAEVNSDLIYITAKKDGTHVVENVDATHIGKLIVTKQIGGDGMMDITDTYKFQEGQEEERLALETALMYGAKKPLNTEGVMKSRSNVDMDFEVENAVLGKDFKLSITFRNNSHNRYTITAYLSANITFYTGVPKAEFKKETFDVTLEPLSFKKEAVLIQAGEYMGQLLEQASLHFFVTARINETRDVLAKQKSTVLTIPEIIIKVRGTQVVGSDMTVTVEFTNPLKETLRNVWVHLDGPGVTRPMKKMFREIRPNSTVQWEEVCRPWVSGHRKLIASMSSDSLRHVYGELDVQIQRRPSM
Description: The transglutaminase activity of human plasma factor XIIIa was measured spectrophotometrically by a modification of the method of Muszbek, Polgar and Fesus; "Kinetic determination of blood coagulation factor XIII in plasma." Clin Chem 31 (1985) pp. 35-40. This method measures the production of ammonia by linking it through the glutamate dehydrogenase reaction to NADH oxidation which can be monitored by the change in absorption at 340 nm. Factor XIII was activated by incubating defibrinated human plasma (2 ml) and 200 mM CaCl2 (0.1 ml) with 1000 unit/ml bovine thrombin (0.1 ml) at 37° C. After 15 min the reaction was stopped by the addition of 260 antithrombin units of hirudin. The reaction cuvette contained: 2.5 mM dithiothreitol (0.1 ml), 40 mg/ml dephosphorylated β-casein (0.05 ml), 70 mM ethylamine (0.1 ml), 12 mM sodium 2-ketoglutarate (0.1 ml), 4 mM NADH (0.1 ml), 1.2 mM ADP (0.1 ml), 40 unit/ml glutamate dehydrogenase (0.1 ml), 70 mM HEPES buffer pH7.5 (0.25 ml) and this was placed in a spectrophotometer at 20° C. All components were dissolved in 70 mM HEPES buffer pH 7.5 where possible. The reaction was started by the addition of the activated factor XIII (0.2 ml) and monitored at 340 nm. The assay was validated with the use of factor XIII-deficient plasma (Sigma).
Test samples were added in 0.1 ml of the HEPES buffer to the reaction cuvette. […]

factor XIIIa = assay: clot solubility assay (fibrin clot in urea); type: biochemical, bovine; conditions: iodoacetamide 100 μM, lowered absorbance = clot soluble in urea
Description: In a first experiment A, the proboscis, anterior and posterior salivary glands of a leech of the species Haementeria ghilianii were homogenised together in a Potter homogeniser in 10 mM Tris HCl, 0.85% w/v NaCl pH7.0 (1 ml), and centrifuged at 13000 rpm. The supernatant was assayed in a clot solubility assay similar to that of Tymiak, Tuttle, Kimball, Wang and Lee "A simple and rapid screen for inhibitors of factor XIIIa". J. Antibiotics 46 (1993) pp. 204-206. In a second experiment B, the proboscis, anterior and posterior salivary glands were dissected from a leech of the species Haementeria ghilianii and homogenised separately in 0.2 ml aliquots of the buffer. The effect was compared with extracts of the proboscis, anterior and posterior salivary glands from two leeches of the species Haementeria officinalis prepared in 0.2 ml buffer. The test samples (30 μl) were added to a solution of 10 mg/ml crude bovine fibrinogen which contains factor XIII (30 μl). The reaction was started by adding 6.25 units/ml bovine thrombin containing 9 mM CaCl2 (40 μl). A clot formed in 15 min when 8M urea (160 μl) was added and left in contact with the clot. After 30 min, the absorbance resulting from the clot's opalescence was read at 405 nm. Lowered absorbance indicates solubility of the clot resulting from inhibition of cross-linking. […] The numerical values quoted in the table are absorbance at 405 nm.

thrombin = thrombin chromogenic substrate assay (S2238); type: biochemical; conditions: 0.046 μg/ml
Description: (§1) The effect of Tridegin variant 1 purified as in Example 6 was tested on the coagulation enzyme, thrombin. with a chromogenic substrate assay. 1 mM S2238 was incubated in 50 mM Tris HCl pH 8.3 and the reaction was started by adding thrombin 0.15 U/ml final concentration. The reaction was monitored in a spectrophotometer at 405 nm.

human factor Xa = human factor Xa (Homo sapiens, UniProt P00742); assay: factor Xa chromogenic substrate assay (S2765); type: biochemical; conditions: 0.046 μg/ml
human factor Xa, sequence (P00742 41-179 limits assumed): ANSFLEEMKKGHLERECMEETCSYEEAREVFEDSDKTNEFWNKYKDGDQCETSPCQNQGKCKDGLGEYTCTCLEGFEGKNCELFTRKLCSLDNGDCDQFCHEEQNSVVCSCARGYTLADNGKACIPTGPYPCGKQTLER
human factor Xa, sequence (P00742 235-488 limits assumed): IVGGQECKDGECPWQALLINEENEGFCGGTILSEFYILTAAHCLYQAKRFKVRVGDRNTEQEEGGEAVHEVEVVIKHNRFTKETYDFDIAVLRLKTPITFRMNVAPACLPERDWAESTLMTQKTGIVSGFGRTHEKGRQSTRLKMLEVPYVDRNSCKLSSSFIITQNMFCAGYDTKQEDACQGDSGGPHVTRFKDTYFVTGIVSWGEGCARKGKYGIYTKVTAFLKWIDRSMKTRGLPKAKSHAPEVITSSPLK
Description: as §1
The effect of the Tridegin purified as in Example 6 was tested on factor Xa. 2 mM S2765 was incubated in 50 mM Tris HCl pH 8.3 and the reaction was started by adding human factor Xa. The assay was performed as in Example 11. […] This confirms that, not only is the transglutaminase inhibitor different from previously known inhibitors of factor Xa, but the methods exemplified to purify the transglutaminase inhibitor successfully remove the factor Xa inhibitors.

O=C(O)CN(CCOCCOCCN(CC(=O)O)CC(=O)O)CC(=O)O [EGTA]
Change in absorbance ([1]; 77 mM in cuvette): 0.024 mAbs/min

NC(=O)CI [Iodoacetamide]
absorbance at 405 nm, Experiment A (factor XIIIa; Tris buffer 0.74): 0.26
absorbance at 405 nm, Experiment B (factor XIIIa; Tris buffer 0.83): 0.42
Change in absorbance ([1]; 0.077 mM in cuvette): 0.356 mAbs/min

Hirudin
inhibitory effect on thrombin (thrombin): 95%
Rate of Reaction (thrombin; control 49.8): 2.63 mAbs/min

rTAP: recombinant tick anticoagulant peptide, a known inhibitor of factor Xa (YNRLCIKPRDWIDECDSNEGGERAYFRNGKGGCDSFWICPEDHTGADYYSSYRDCFNACI; ends and bridges not checked; cysteine pairing not given here; UniProt P17726 1-60, looked up)
inhibition of factor Xa (human factor Xa): 89.9%
Reaction Rate (human factor Xa; control 49.8): 5.53 mAbs/min

Reference: US6025330A, “Inhibitors of fibrin cross-linking and/or transglutaminases” (BioPharm Research & Development Ltd., priority 1995, dated 2000)
